Where two headings read alike, the source gives them in different places.
What was measured:
[1] = biological target: T1, rNav1.2 sodium channels (HEK-293 cells) (Rattus norvegicus, UniProt P04775); experiment: steady-state inactivation protocol (availability curves), QPatch automated patch-clamp; type: cell-based
Source text: (§1) A)–D) Peak amplitudes of evoked currents (5 Hz trains of 5 depolarizations from −90 to −10 mV) are plotted against time. Black dots: Control. Grey dots: Drug perfusion. […] Calculation of properties of inhibition is illustrated. […] E) Calculation of Kr and Ki values from steady-state availability curves.
Standard steady-state inactivation protocols were used to measure the shift of steady-state availability curve caused by the drugs. Currents were evoked by a 10 ms test pulse to −10 mV, preceded by 400 ms pre-pulses from −150 to −30 mV. […] Because the inhibition at hyperpolarized potentials (Inh−150), and the shift of the availability curves (ΔV1/2) are both concentration-dependent properties, we calculated affinities to hyperpolarized and depolarized states (“resting state affinity”: Kr, and “inactivated state affinity”: Ki), which, on the other hand, are concentration-independent characteristics of individual drugs. Calculation of Kr and Ki values are described in Materials and Methods, and illustrated in Figure 1E. State-dependence (SD) was quantified as the ratio Kr/Ki.
(§2) HEK-293 cells stably expressing rNav1.2 sodium channels were obtained from NeuroSearch (Ballerup, Denmark).
(§3) Cells were automatically prepared for application to the chips (centrifuged and washed twice, then resuspended in extracellular solution) as described previously. Composition of the extracellular solution was: (in mM): 140 NaCl, 3 KCl, 1 CaCl2, 1 MgCl2, 0.1 CdCl2, 20 TEA-Cl, 5 HEPES, adjusted to pH 7.3, Osmolality: ∼320 mOsm.
(§4) All electrophysiological experiments were conducted on Qpatch-16 or QPatch HT instruments using QPlate™ chips. For a detailed description of the instrument and the patch-clamp chips see [37], [38]. Data were sampled at a frequency of 25 kHz and filtered at 5 kHz. […] The amplifier was controlled and the data were collected by the Sophion QPatch client software. For initial data analysis the QPatch software was used. Built-in amplifiers provide an improved method for series resistance compensation. Leak subtraction (based on a standard P/n protocol) was used to subtract the capacitive component of currents.
Inactivated affinity (Ki) values were calculated assuming a simple four-state model of drug binding and channel gating, using two separate methods: (1) from the shift of the availability curve (ΔV1/2), the slope of the Boltzmann fit of the availability curve (k) and Kr, using the formula described by Bean, Cohen and Tsien (Ki−ΔV1/2; see Figure 1E), or (2) from the apparent affinity (Kapp) at a certain pre-pulse potential, which was calculated from the inhibition (e.g. Inh−60) as described above, and the availability (h) at the same pre-pulse potential, using the formula from Kuo and Bean (Figure 1E). […] (Arithmetic means and SEM values are given in Results S7.)

[2] = biological target: T1, rNav1.2 sodium channels (HEK-293 cells); experiment: 5 Hz train protocol, QPatch automated patch-clamp; type: cell-based; settings: for τoff: 500 s assigned where irreversible; for Rev (reversibility): Rev = A5/A1 after washout; for potency estimated from few doses: −90 mV;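 on UD (use-dependence of the inhibition): UD = (A3/A4)/(A1/A2) as ratios of peak amplitudes from Figure 1A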
Source text: The dynamics of the onset and offset of inhibition was monitored using 5 Hz trains of five depolarizing pulses from a holding potential of −90 mV to −10 mV. The trains were repeated every 20 s. Drugs were applied after 10 control trains and 10 trains were delivered in the presence of the drug. The drug was then washed out, and the 10 trains were repeated.
We measured inhibition (Inh; from which we calculated IC50 values as described in Materials and Methods), reversibility of inhibition (Rev) and use-dependence (UD), as well as time constant of onset (τon) and offset (τoff). The calculation of IC50, quantification of Rev and UD, and the determination of time constants are illustrated in Figure 1A. Because τon should be concentration-dependent if we assume a single binding reaction, we excluded it from the analyses. […] Comments on the interpretation of these properties (Rev, […] and UD) are in Results S1.
as §1, §2, §3, §4
From this protocol we extracted five parameters, as illustrated in Figure 1A. We calculated inhibition of a single “cc” concentration: Inh = (amplitudectr – amplitudedrug)/amplitudectr.

[3] = human plasma, cited from earlier work
[4] = HEK293, 100 µM, read-out: Inh (inhibited fraction) at holding potential −150 mV
[5] = arithmetic mean, 100 µM, read-out: Ki-Kapp arith
[6] = arithmetic mean, 100 µM, read-out: Ki-ΔV1/2 arith
[7] = arithmetic mean, 100 µM, read-out: Kr arith
[8] = geometric mean, from Inh at −150 mV, 100 µM, read-out: Kr (resting state affinity)
[9] = geometric mean, from apparent affinity, 100 µM, read-out: Ki−Kapp (inactivated state affinity)
[10] = geometric mean, from shift of availability curve, 100 µM, read-out: Ki−ΔV1/2 (inactivated state affinity)
[11] = HEK293, 100 μM, −90 mV holding potential, 5 Hz train, read-out: Inh (inhibited fraction)
[12] = HEK293, calculated from Inh at single concentration 100 μM, 5 Hz train, read-out: IC50

T1 sequence (P04775 whole entry, the tested form may be a part): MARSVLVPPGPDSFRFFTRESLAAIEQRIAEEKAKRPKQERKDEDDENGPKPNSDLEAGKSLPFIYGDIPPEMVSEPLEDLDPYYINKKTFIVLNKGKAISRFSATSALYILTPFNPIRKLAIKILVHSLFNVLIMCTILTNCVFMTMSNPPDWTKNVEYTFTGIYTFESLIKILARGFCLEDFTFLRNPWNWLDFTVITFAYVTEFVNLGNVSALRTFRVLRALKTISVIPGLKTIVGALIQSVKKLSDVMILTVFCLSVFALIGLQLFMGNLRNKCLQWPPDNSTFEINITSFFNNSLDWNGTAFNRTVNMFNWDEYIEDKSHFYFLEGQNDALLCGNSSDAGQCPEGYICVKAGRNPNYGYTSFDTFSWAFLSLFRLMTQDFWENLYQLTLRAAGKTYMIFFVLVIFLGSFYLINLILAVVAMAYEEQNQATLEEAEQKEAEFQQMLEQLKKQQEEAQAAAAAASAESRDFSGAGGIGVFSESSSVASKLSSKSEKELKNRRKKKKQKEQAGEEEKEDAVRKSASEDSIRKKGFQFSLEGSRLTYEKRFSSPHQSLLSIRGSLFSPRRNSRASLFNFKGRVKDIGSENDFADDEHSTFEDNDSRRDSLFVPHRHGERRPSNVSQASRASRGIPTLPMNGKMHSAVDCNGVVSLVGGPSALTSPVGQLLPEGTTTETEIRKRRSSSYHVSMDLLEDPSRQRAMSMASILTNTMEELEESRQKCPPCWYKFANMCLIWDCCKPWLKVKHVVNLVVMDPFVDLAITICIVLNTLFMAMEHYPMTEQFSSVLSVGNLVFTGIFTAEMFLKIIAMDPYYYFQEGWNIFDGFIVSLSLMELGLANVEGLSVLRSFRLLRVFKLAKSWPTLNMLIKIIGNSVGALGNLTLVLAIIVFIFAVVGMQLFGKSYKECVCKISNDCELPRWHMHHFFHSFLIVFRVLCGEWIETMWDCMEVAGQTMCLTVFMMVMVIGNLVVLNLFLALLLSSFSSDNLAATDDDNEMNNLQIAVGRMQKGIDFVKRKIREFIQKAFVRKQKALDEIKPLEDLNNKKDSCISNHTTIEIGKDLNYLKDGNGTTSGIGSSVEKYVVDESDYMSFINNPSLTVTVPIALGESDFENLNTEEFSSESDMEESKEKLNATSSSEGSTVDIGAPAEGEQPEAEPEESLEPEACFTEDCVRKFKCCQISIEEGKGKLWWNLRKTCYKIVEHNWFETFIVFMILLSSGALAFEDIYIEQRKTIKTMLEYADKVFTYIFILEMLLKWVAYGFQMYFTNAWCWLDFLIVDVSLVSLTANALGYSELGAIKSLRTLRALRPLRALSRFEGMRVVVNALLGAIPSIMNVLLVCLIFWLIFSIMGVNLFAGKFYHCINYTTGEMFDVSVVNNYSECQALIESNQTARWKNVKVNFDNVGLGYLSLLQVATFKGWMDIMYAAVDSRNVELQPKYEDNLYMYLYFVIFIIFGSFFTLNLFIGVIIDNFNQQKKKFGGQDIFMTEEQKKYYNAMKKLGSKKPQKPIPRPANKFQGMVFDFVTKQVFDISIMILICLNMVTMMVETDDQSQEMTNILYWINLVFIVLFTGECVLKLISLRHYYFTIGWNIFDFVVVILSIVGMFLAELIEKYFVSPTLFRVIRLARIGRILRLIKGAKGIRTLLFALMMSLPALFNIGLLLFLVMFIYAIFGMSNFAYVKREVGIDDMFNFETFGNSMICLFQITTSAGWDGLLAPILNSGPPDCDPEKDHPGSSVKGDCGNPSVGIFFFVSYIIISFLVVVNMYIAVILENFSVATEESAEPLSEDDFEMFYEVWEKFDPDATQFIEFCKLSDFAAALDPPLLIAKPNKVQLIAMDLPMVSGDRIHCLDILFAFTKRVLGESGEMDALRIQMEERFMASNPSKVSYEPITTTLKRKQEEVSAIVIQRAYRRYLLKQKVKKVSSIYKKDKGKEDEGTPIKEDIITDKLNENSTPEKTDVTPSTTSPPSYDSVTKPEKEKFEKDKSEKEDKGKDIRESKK

SMILES: CC(NC(C)(C)C)C(=O)c1cccc(Cl)c1 (centres unmarked) [BPR, Bupropion]
- inhibition at 100 µM [1, 4]: 16%
- Ki [1, 5]: 27.4 µM
- Ki [1, 6]: 29.1 µM
- Kd [1, 7]: 733 µM
- Kd [1, 8]: 604 µM
- Ki [1, 9]: 25.5 µM
- Ki [1, 10]: 26 µM
- τon ([2]; 100 μM): 4.6 s
- UD (use-dependence of the inhibition) ([2]; 100 μM, 5 Hz train): 1.04
- τoff ([2]; 100 μM): 12.45 s
- Rev (reversibility) ([2]; 100 μM): 0.92
- inhibition at 100 µM [2, 11]: 15%
- potency estimated from few doses [2, 12]: 565 µM

SMILES: CN(C)CC/C=C1/c2ccccc2Sc2ccc(Cl)cc21 [CHX, Chlorprothixene]
- ΔV1/2 (shift of availability curve) ([1]; 30 μM): −15.8 mV
- inhibition at 30 µM ([1]; HEK293, 30 µM, read-out: Inh (inhibited fraction) at holding potential −150 mV): 20%
- Ki ([1]; arithmetic mean, 30 µM, read-out: Ki-Kapp arith): 2.21 µM
- Ki ([1]; arithmetic mean, 30 µM, read-out: Ki-ΔV1/2 arith): 1.14 µM
- Kd ([1]; arithmetic mean, 30 µM, read-out: Kr arith): 144 µM
- Kd ([1]; geometric mean, from Inh at −150 mV, 30 µM, read-out: Kr (resting state affinity)): 128 µM
- Ki ([1]; geometric mean, from apparent affinity, 30 µM, read-out: Ki−Kapp (inactivated state affinity)): 1.74 µM
- Ki ([1]; geometric mean, from shift of availability curve, 30 µM, read-out: Ki−ΔV1/2 (inactivated state affinity)): 0.73 µM
- plasma conc. ([3]; as printed in each cell): 0.07 [50] µg/ml
- plasma conc. ([3]; as printed in the µg/ml cell): 0.200 µM
- τon ([2]; 30 μM): 7.24 s
- UD (use-dependence of the inhibition) ([2]; 30 μM, 5 Hz train): 1.25
- τoff ([2]; 30 μM): 14.41 s
- Rev (reversibility) ([2]; 30 μM): 0.18
- inhibition at 30 µM ([2]; HEK293, 30 μM, −90 mV holding potential, 5 Hz train, read-out: Inh (inhibited fraction)): 28%
- potency estimated from few doses ([2]; HEK293, calculated from Inh at single concentration 30 μM, 5 Hz train, read-out: IC50): 42.5 µM

SMILES: CN1CCN(C2=Nc3cc(Cl)ccc3Nc3ccccc32)CC1 [CLZ, Clozapine]
- plasma conc. ([3]; as printed in each cell): 0.55 [44] µg/ml
- plasma conc. ([3]; as printed in the µg/ml cell): 1.671 µM

SMILES: O=C(O)Cc1ccccc1Nc1c(Cl)cccc1Cl [DIC, Diclofenac]
- inhibition at 100 µM [1, 4]: 3%
- Ki [1, 5]: 98.4 µM
- Ki [1, 6]: 102 µM
- Kd [1, 7]: 3300 µM
- Kd [1, 8]: 3120 µM
- Ki [1, 9]: 87.8 µM
- Ki [1, 10]: 81 µM
- plasma conc. ([3]; as printed in each cell): 2 [44] µg/ml
- plasma conc. ([3]; as printed in the µg/ml cell): 6.287 µM
- τon ([2]; 100 μM): 7.19 s
- UD (use-dependence of the inhibition) ([2]; 100 μM, 5 Hz train): 1.01
- τoff ([2]; 100 μM): 26.43 s
- Rev (reversibility) ([2]; 100 μM): 0.95
- potency estimated from few doses [2, 12]: 561 µM

SMILES: C#CCN(C)[C@H](C)Cc1ccccc1 [DPR, R-(-)-Deprenyl]
- IC50 compared to plasma concentration [2]: exceedingly high
- Inh (inhibited fraction) ([2]; 300 μM, −90 mV holding potential, 5 Hz train): 0.22

SMILES: Fc1ccc(C(c2ccc(F)cc2)N2CCN(C/C=C/c3ccccc3)CC2)cc1 [FLR, Flunarizine]
- plasma conc. ([3]; as printed in each cell): 0.06 [58] µg/ml
- plasma conc. ([3]; as printed in the µg/ml cell): 0.113 µM

SMILES: CNCCC(Oc1ccc(C(F)(F)F)cc1)c1ccccc1 (centres unmarked) [FLX, Fluoxetine]
- plasma conc. ([3]; as printed in each cell): 0.38 [44] µg/ml
- plasma conc. ([3]; as printed in the µg/ml cell): 1.099 µM

SMILES: NCC1(CC(=O)O)CCCCC1 [GAB, Gabapentin]
- plasma conc. ([3]; as printed in each cell): 4 [44] µg/ml
- plasma conc. ([3]; as printed in the µg/ml cell): 23.359 µM
- potency estimated from few doses ([2]; HEK293, read-out: IC50, calculated from Inh at single concentration 300 μM, 5 Hz train): 14700 µM
- inhibition at 300 µM ([2]; HEK293, read-out: Inh (inhibited fraction)): 3%

SMILES: O=C(CCCN1CCC(O)(c2ccc(Cl)cc2)CC1)c1ccc(F)cc1 [HAL, Haloperidol]
- plasma conc. ([3]; as printed in each cell): 0.02 [44] µg/ml
- plasma conc. ([3]; as printed in the µg/ml cell): 0.053 µM

SMILES: O=C(NCCN1CCOCC1)c1ccc(Cl)cc1 [MCL, Moclobemide]
- plasma conc. ([3]; as printed in each cell): 0.29 [49] µg/ml
- inhibition at 100 µM [2, 11]: 9%
- potency estimated from few doses [2, 12]: 1010 µM

SMILES: CNC1(C)C2CCC(C2)C1(C)C (centres unmarked) [MEC, Mecamylamine]
- plasma conc. ([3]; as printed in each cell): 0.02 [60] µg/ml
- plasma conc. ([3]; as printed in the µg/ml cell): 0.118 µM
- IC50 compared to plasma concentration [2]: exceedingly high
- inhibition at 100 µM [2, 11]: 5%
- potency estimated from few doses [2, 12]: 2760 µM
